# Measurements: patent US7635467B2, “Mammalian multipotent stem cells and compositions, methods of preparation and methods of administration thereof” (The Board of Trustees of the University of Illinois, priority 2002, dated 2009)
# “Also recorded” adds a separate entry of the source.
# Tests used:
# human MNSCs [1] = test: Differentiation of human MNSCs treated with recombinant sAPP, serum-free conditions; format: cell-based
# Description: To investigate whether 22C11-induced inhibition of human MNSC differentiation occurs through the sequestering of sAPP or by blocking the N-terminal domain of APP on the membrane of differentiating cells, human MNSCs were treated with exogenous sAPP. Recombinant human sAPP was produced in yeast, which contains 95% sAPP695T (ending at amino acid 505 of 695) and 5% sAPP695.
# The cell population of sAPP-treated human MNSCs at 5 DIV under the serum-free differentiation condition was also characterized by double immunofluorescence labeling of GFAP and bIII tubulin (FIG. 29). Treatment with sAPP dose dependently (25, 50, 100 ng/ml) increased the population of GFAP positive cells from an average of 45% in controls (no sAPP) to an average of 83% using the highest concentration of sAPP (100 ng/ml at 5 DIV).
# human MNSCs [2] = test: Exposure of human MNSC cultures to recombinant reelin; format: cell-based
# Source text: The cell cluster is composed of undifferentiated cultured cells with migrating and differentiating cells forming the leading outer processes.
# human MeSCs = test: Co-culture of BrdU-treated human MeSCs with differentiated NSCs, immunocytochemistry for bIII-tubulin and GFAP; format: cell-based; details: MeSCs treated with 10 μM BrdU for 5 days; seven days post-coculture
# [3] = system: Genomic DNA from human MeSCs; test: Methylation-sensitive restriction enzyme (HpaII) digestion of genomic DNA from BrdU-treated MeSCs; details: 0, 1 and 10 μM BrdU for 72 hr; dose-dependent
compound,measurement,setting,value
"sAPP: Recombinant human sAPP produced in yeast, contains 95% sAPP695T (ending at amino acid 505 of 695) and 5% sAPP695",population of GFAP positive cells,"human MNSCs [1]; 100 ng/ml at 5 DIV, serum-free, 45% in controls",83%
same,bIII-tubulin-positive neurons in total population of differentiated human MNSCs,"human MNSCs [1]; highest concentration of sAPP, 5 DIV, serum-free, 51% in controls",13%
same,differentiation pattern (GFAP / bIII-tubulin staining) compared to control,"human MNSCs [1]; low doses of sAPP (e.g., 25 ng/ml), 5 DIV, serum-free",increased glial (red) and neuronal (green) differentiation
same,TUNEL signal in human MNSCs,human MNSCs [1]; sAPP treatment,did not increase the TUNEL signal
same,differentiation of human MNSCs,"human MNSCs [1]; serum-free differentiation conditions, 25, 50 and 100 ng/ml, 5 days, dose-dependent",differentiated human MNSCs; also recorded: increased the differentiation
recombinant reelin: large extracellular matrix (ECM) protein of approximately 400 kDa,mobility of cells in the cluster,human MNSCs [2]; addition of recombinant reelin to NSCs in culture,increased mobility of cells
same,behaviour of processes of differentiating human MNSC cultures,human MNSCs [2]; exposure to recombinant reelin,immediately retract their processes back to the cell cluster
"O=c1[nH]c(=O)n([C@H]2C[C@H](O)[C@@H](CO)O2)cc1Br [BrdU, 5-bromo-2-deoxyuridine]","GFAP-immunopositive large flattened multipolar cells, of total cells",human MeSCs,approximately 60%
same,"bIII-tubulin immunopositive small bipolar and unipolar cells, of total cells",human MeSCs,approximately 40%
same,HpaII digestion of genomic DNA (size of DNA fragments),[3],prevented enzyme digestion; also recorded: prevents methylation-sensitive restriction enzyme digestion of DNA
